Where “and” joins values, the source holds several entries; their conditions need not be identical. Equal entries are not always repeated.
Experiments:
[1] = system: Tarnished Plant Bug Adults; test: Field trial, stomach poison test; assay type: in vivo; set-up: key: mortality rating on a 0 to 9 scale
Outline: (§1)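 Leaves from infested plants sprayed (10 psi) or dipped in test compound at several concentrations, air-dried, then five or ten insects placed per dish, one or two replicates. Mortality scored 0 to 9 at 24, 48 and 72 h, averaged per concentration.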

[2] = system: Unidentified Green Leafhopper; test: Field trial, stomach poison test; assay type: in vivo; set-up: key: mortality rating on a 0 to 9 scale
Outline: as §1

Alfalfa Weevil Larvae = test: Field trial, contact poison test; assay type: in vivo
Outline: (§2)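 Infested plants in water-filled bottles sprayed by atomizer at 10 psi with compound at several concentrations. Mortality read at 24, 48 and 72 hours on a 0–9 scale (0 = 0-10%, 9 = 91-100%), averaged per concentration.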

[3] = system: Potato Flea Beetle Adults; test: Field trial, contact poison test; assay type: in vivo
Outline: as §2

Mexican Bean Beetle = test: Field trial (first summer), topical; assay type: in vivo, Epilachna varivestis; conditions: .0625 μg/μl
Method: In a variation of the above test, 1 microliter of a test solution containing a predetermined number of micrograms of benzimidazole was applied directly to larvae or adult insects.
(§3) During the previous summer similar field trials were conducted employing the same tests as heretofore but with some additional species of insects not included in the later tests. The results listed below are for tests in which an insect mortality was established by a given application route and at a given concentration in a particular test. The same 0 - 9 scoring system is used as is the designation of compounds by alphabetical symbols.

Picnic Beetle = test: Field trial (first summer), stomach; assay type: in vivo; conditions: 250 ppm
Method: Leaves from the infested plant are treated with different concentrations of the test compounds, either by spraying with a DeVilbiss Special Atomizer (5004) at 10 psi or by dipping the leaves in solutions containing the compound. The leaves are then allowed to air dry.
After the leaves have dryed, they are placed in plastic petri dishes (100 × 25 mm), then the insects are counted out into each dish, five or ten insects per dish depending on the number of insects available. There are one or two replicates and usually two or three rates with each compound. Mortality results are taken at 24, 48 and 72 hours. The rating scale is 0 to 9.
as §3

Differential Grasshopper = test: Field trial (first summer), contact; assay type: in vivo; conditions: 250 ppm
Text: (§4) Infested plants are placed in 6 oz. prescription bottles filled with water to keep them from wilting. Cellucotton is wrapped around the plant stem and squeezed into the bottle neck to prevent the insects from drowning.
(§5) A DeVilbiss Special Atomizer (5004) is used at 10 psi to spray the test plant with different concentrations of compounds. The atomizer is held at arm's length to prevent blowing the insects off the host plant. After treating, the bottles are placed on a table covered with brown wrapping paper to catch the dead insects as they drop from the plant. The plants are spaced so the leaves or plants are not touching one another.
(§6) The results are read at 24, 48, and 72 hours when applicable. The rating scale is 0 to 9 where 0 = 0-10 percent and 9 = 91-100 percent mortality.
as §3

Meadow Grasshopper = test: Field trial (first summer), contact; assay type: in vivo; conditions: 125 ppm
Text: as §4, §5, §6, §3

Armyworm, P. Unipuncta [4] = test: Field trial, stomach poison test; assay type: in vivo
Outline: as §1

Bagworms = test: Field trial, stomach poison test; assay type: in vivo
Outline: as §1

Eastern Tent Caterpillar [5] = test: Field trial, stomach poison test; assay type: in vivo
Outline: as §1

Elm Leaf Beetle [6] = test: Field trial, stomach poison test; assay type: in vivo
Outline: as §1

[7] = system: Red-Legged Grasshopper Adults; test: Field trial, stomach poison test; assay type: in vivo
Outline: as §1

Walnut Caterpillar [8] = test: Field trial, stomach poison test; assay type: in vivo
Outline: as §1

Armyworm, P. Unipuncta [9] = test: Field trial, contact poison test; assay type: in vivo
Outline: as §2

Eastern Tent Caterpillar [10] = test: Field trial, contact poison test; assay type: in vivo
Outline: as §2

Elm Leaf Beetle [11] = test: Field trial, contact poison test; assay type: in vivo
Outline: as §2

Walnut Caterpillar [12] = test: Field trial, contact poison test; assay type: in vivo
Outline: as §2

Eastern Tent Caterpillar [13] = test: Field trial, topical application; assay type: in vivo
Outline: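 1 μL benzimidazole solution of set microgram content applied topically to larvae or adults. Mortality read at 24, 48 and 72 h where applicable, rated 0-9 (0 = 0-10%, 9 = 91-100%); values are average mortality per concentration.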

House Fly = test: Housefly (Stomach) Test; assay type: in vivo, Musca domestica (Diptera); conditions: 24 h
Method: Ten chilled house flies are taken from the rearing cage and placed in a covered petri dish. Sugar cubes treated with 0.2 ml. of a formulation containing a specified level of the insecticide are placed in the petri dish one hour after the flies have been removed from the chill room. Controls consist of sugar cubes treated with 0.2 ml. of deionized water and cubes treated with 0.2 ml. of a formulation containing 500 ppm of malathion. Mortality counts are made 24 hours later. The same rating scale is used as before.

Compound CCCCCCOC(=O)n1c(C(F)(F)F)nc2c([N+](=O)[O-])cc(C(F)(F)F)cc21 [E, n-hexyl 2,6-bis(trifluoromethyl)-4-nitro-1-benzimidazolecarboxylate] has an average mortality rating ([1]; 10 ppm) of 1, an average mortality rating ([1]; 25 ppm) of 2 and an average mortality rating ([1]; 50 ppm) of 3. The average mortality rating ([2]; 10 ppm) was 4, the average mortality rating ([2]; 25 ppm) was 7 and the average mortality rating ([2]; 50 ppm) was 7. The average mortality rating (Alfalfa Weevil Larvae; 500 ppm) was 4, the average mortality rating (Alfalfa Weevil Larvae; 750 ppm) was 2 and the average mortality rating (Alfalfa Weevil Larvae; 1000 ppm) was 4. For the same compound, the average mortality rating ([3]; 10 ppm) was 6, the average mortality rating ([3]; 25 ppm) was 9 (91-100 percent mortality) and the average mortality rating ([3]; 50 ppm) was 9 (91-100 percent mortality). The average mortality rating ([3]; 100 ppm) was 9 (91-100 percent mortality), the average mortality rating ([3]; 250 ppm) was 9 (91-100 percent mortality) and the insect mortality rating (Mexican Bean Beetle) was 9 (91-100 percent mortality). The insect mortality rating (Picnic Beetle) was 9 (91-100 percent mortality), the insect mortality rating (Differential Grasshopper) was 9 (91-100 percent mortality) and the insect mortality rating (Meadow Grasshopper) was 9 (91-100 percent mortality).

For CC(C)OC(=O)n1c(C(F)(F)F)nc2c([N+](=O)[O-])cc(C(F)(F)F)cc21 [I, isopropyl 2,6-bis(trifluoromethyl)-4-nitro-1-benzimidazolecarboxylate], the average mortality rating (Armyworm, P. Unipuncta [4]; 125 ppm) was 2, the average mortality rating (Armyworm, P. Unipuncta [4]; 250 ppm) was 4 and the average mortality rating (Armyworm, P. Unipuncta [4]; 500 ppm) was 2. The average mortality rating (Bagworms; 500 ppm) was 1, the average mortality rating (Bagworms; 750 ppm) was 0 (0-10 percent) and the average mortality rating (Bagworms; 1000 ppm) was 1. The average mortality rating (Bagworms; 1500 ppm) was 0 (0-10 percent), the average mortality rating (Bagworms; 2500 ppm) was 1 and the average mortality rating (Bagworms; 5000 ppm) was 1. For the same compound, the average mortality rating (Eastern Tent Caterpillar [5]; 250 ppm) was 0 (0-10 percent), the average mortality rating (Eastern Tent Caterpillar [5]; 500 ppm) was 0 (0-10 percent) and the average mortality rating (Eastern Tent Caterpillar [5]; 1000 ppm) was 0 (0-10 percent). For the same compound, the average mortality rating (Elm Leaf Beetle [6]; 125 ppm) was 0 (0-10 percent), the average mortality rating (Elm Leaf Beetle [6]; 250 ppm) was 0 (0-10 percent) and the average mortality rating (Elm Leaf Beetle [6]; 500 ppm) was 3. For the same compound, the average mortality rating ([7]; 10 ppm) was 0 (0-10 percent), the average mortality rating ([7]; 25 ppm) was 4 and the average mortality rating ([7]; 50 ppm) was 4. The average mortality rating (Walnut Caterpillar [8]; 50 ppm) was 0 (0-10 percent), the average mortality rating (Walnut Caterpillar [8]; 100 ppm) was 1 and the average mortality rating (Walnut Caterpillar [8]; 250 ppm) was 2. It also gave an average mortality rating ([1]; 10 ppm) of 3, an average mortality rating ([1]; 25 ppm) of 4 and an average mortality rating ([1]; 50 ppm) of 2. The average mortality rating ([2]; 10 ppm) was 2, the average mortality rating ([2]; 25 ppm) was 6 and the average mortality rating ([2]; 50 ppm) was 7. It also gave an average mortality rating (Alfalfa Weevil Larvae; 500 ppm) of 1, an average mortality rating (Alfalfa Weevil Larvae; 750 ppm) of 2 and an average mortality rating (Alfalfa Weevil Larvae; 1000 ppm) of 1. The average mortality rating (Armyworm, P. Unipuncta [9]; 125 ppm) was 0 (0-10 percent), the average mortality rating (Armyworm, P. Unipuncta [9]; 250 ppm) was 0 (0-10 percent) and the average mortality rating (Armyworm, P. Unipuncta [9]; 500 ppm) was 0 (0-10 percent). For the same compound, the average mortality rating (Eastern Tent Caterpillar [10]; 50 ppm) was 0 (0-10 percent), the average mortality rating (Eastern Tent Caterpillar [10]; 100 ppm) was 1 and the average mortality rating (Eastern Tent Caterpillar [10]; 250 ppm) was 3. It also gave an average mortality rating (Eastern Tent Caterpillar [10]; 500 ppm) of 6, an average mortality rating (Eastern Tent Caterpillar [10]; 1000 ppm) of 5 and an average mortality rating (Elm Leaf Beetle [11]; 250 ppm) of 1. The average mortality rating (Elm Leaf Beetle [11]; 500 ppm) was 1, the average mortality rating (Elm Leaf Beetle [11]; 1000 ppm) was 1 and the average mortality rating ([3]; 10 ppm) was 9 (91-100 percent mortality). For the same compound, the average mortality rating ([3]; 25 ppm) was 9 (91-100 percent mortality), the average mortality rating ([3]; 50 ppm) was 9 (91-100 percent mortality) and the average mortality rating ([3]; 100 ppm) was 9 (91-100 percent mortality). For the same compound, the average mortality rating ([3]; 250 ppm) was 9 (91-100 percent mortality), the average mortality rating (Walnut Caterpillar [12]; 25 ppm) was 0 (0-10 percent) and the average mortality rating (Walnut Caterpillar [12]; 50 ppm) was 1. For the same compound, the average mortality rating (Walnut Caterpillar [12]; 100 ppm) was 2, the average mortality rating (Walnut Caterpillar [12]; 250 ppm) was 3 and the average mortality rating (Eastern Tent Caterpillar [13]; 0.3 μg/μl) was 0 (0-10 percent). For the same compound, the average mortality rating (Eastern Tent Caterpillar [13]; 0.6 μg/μl) was 1 and the average mortality rating (Eastern Tent Caterpillar [13]; 1.2 μg/μl) was 2.

For O=[N+]([O-])c1cc(C(F)(F)F)cc2[nH]c(C(F)(F)Cl)nc12 [L, 2-chlorodifluoromethyl-4-nitro-6-trifluoromethylbenzimidazole], the mortality rating (House Fly; 50 ppm) was “.5”, the average mortality rating ([1]; 10 ppm) was 0 (0-10 percent) and the average mortality rating ([1]; 25 ppm) was 4. The average mortality rating ([1]; 50 ppm) was 5.

For “mixture of N,N-dimethyl-4-nitro-2,6-bis(trifluoromethyl)thio-1-benzimidazolecarboxamide and N,N-dimethyl-7-nitro-2,5-bis(trifluoromethyl)thio-1-benzimidazolecarboxamide [P]”, the mortality rating (House Fly; 50 ppm) was 0 (0-10), the mortality rating (House Fly; 100 ppm) was 3 (31-40) and the mortality rating (House Fly; 250 ppm) was 7 (71-80). For the same compound, the mortality rating (House Fly; 500 ppm) was 9 (91-100).

In the case of “mixture of benzyl 2,6-bis(trifluoromethyl)-4-nitro-1-benzimidazolecarboxylate and benzyl 2,5-bis(trifluoromethyl)-7-nitro-1-benzimidazolecarboxylate”, the mortality rating (House Fly; 250 ppm) is reported as 0 (0-10), the mortality rating (House Fly; 500 ppm) is reported as 4 (41-50) and the mortality rating (House Fly; 1000 ppm) is reported as 9 (91-100). It also gave an average mortality rating (Alfalfa Weevil Larvae; 500 ppm) of 4, an average mortality rating (Alfalfa Weevil Larvae; 750 ppm) of 4 and an average mortality rating (Alfalfa Weevil Larvae; 1000 ppm) of 6.

For “mixture of methyl 2,6-bis(trifluoromethyl)-4-nitro-1-benzimidazolecarboxylate and methyl 2,5-bis(trifluoromethyl)-7-nitro-1-benzimidazolecarboxylate”, the mortality rating (House Fly; 250 ppm) was 2 (21-30), the mortality rating (House Fly; 500 ppm) was 5.5 and the mortality rating (House Fly; 1000 ppm) was 8.5. For the same compound, the average mortality rating ([1]; 25 ppm) was 3, the average mortality rating ([1]; 50 ppm) was 7 and 4 and the average mortality rating ([2]; 10 ppm) was 5. For the same compound, the average mortality rating ([2]; 25 ppm) was 4, the average mortality rating ([2]; 50 ppm) was 6 and the average mortality rating (Alfalfa Weevil Larvae; 500 ppm) was 2. The average mortality rating (Alfalfa Weevil Larvae; 750 ppm) was 6, the average mortality rating (Alfalfa Weevil Larvae; 1000 ppm) was 7 and the insect mortality rating (Picnic Beetle) was 9 (91-100 percent mortality).

For “mixture of phenyl 2,6-bis(trifluoromethyl)-4-nitro-1-benzimidazolecarboxylate and phenyl 2,5-bis(trifluoromethyl)-1-benzimidazolecarboxylate”, the mortality rating (House Fly; 100 ppm) was 0 (0-10), the mortality rating (House Fly; 1000 ppm) was 9 (91-100) and the average mortality rating ([2]; 10 ppm) was 0 (0-10 percent). For the same compound, the average mortality rating ([2]; 25 ppm) was 1 and the average mortality rating ([2]; 50 ppm) was 9 (91-100 percent mortality).

— patent publication US4122184A, “Benzimidazole insecticides” (priority 1977, dated 1978)
